One assay has as its target TNFα (Homo sapiens, UniProt P01375). Kind of assay: TNFα Induced HEK Blue Cellular Assay. It counts as cell-based.
Settings: not given
Put shortly: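 Reporter cells (10,000/well, DMEM + 10% FBS) with compound (final […] to 0.5 nM) stimulated with 100 pg/ml TNFα, 24 h at 37 °C, 5% CO2. Secreted alkaline phosphatase read at 620 nm; IC50 by 4-parameter logistic fit after background correction against stimulated/unstimulated DMSO controls.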
TNFα, sequence (P01375 77-233 limits assumed): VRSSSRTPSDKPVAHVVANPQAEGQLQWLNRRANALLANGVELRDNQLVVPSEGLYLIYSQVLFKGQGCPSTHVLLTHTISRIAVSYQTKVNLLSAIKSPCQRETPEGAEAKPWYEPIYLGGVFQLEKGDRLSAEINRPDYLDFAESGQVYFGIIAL
What is called IC50 is the point on the concentration scale where inhibition reaches its midpoint. For `[2H]C([2H])([2H])N1C(=O)c2cccc(OC(F)F)c2[C@H]2C[C@@H]1c1nc3ccc(-c4ccc(CP(=O)(OC)OC)cc4)cc3n12` [Example 83, dimethyl (4-((7R,14R)-1-(difluoromethoxy)-6-(methyl-d3)-5-oxo-5,6,7,14-tetrahydro-7,14-methanobenzo[f]benzo[4,5]imidazo[1,2-a][1,4]diazocin-11-yl)benzyl)phosphonate], the IC50 is under 100 nM.

The same assay, now with this note: HEK Blue TNFα reporter cells, TNFα 100 pg/ml, 24 hrs at 37° C., secreted alkaline phosphatase (QUANTI-Blue) read at 620 nm; read-out: IC50 value.
As to `[2H]C([2H])([2H])N1C(=O)c2cccc(OCC)c2[C@H]2C[C@@H]1c1nc3ccc(-c4cc(F)c(P(C)(C)=O)cc4F)cc3n12` [Example 75, (7R,14R)-11-(4-(dimethylphosphoryl)-2,5-difluorophenyl)-1-ethoxy-6-(methyl-d3)-6,7-dihydro-7,14-methanobenzo[f]benzo[4,5]imidazo[1,2-a][1,4]diazocin-5(14H)-one], the IC50 is under 100 nM.

In the case of `[2H]C([2H])([2H])N1C(=O)c2cccc(OC(F)F)c2[C@H]2C[C@@H]1c1nc3ccc(-c4ccc(CP(C)(C)=O)c(F)c4F)cc3n12` [Example 76, (7R,14R)-1-(difluoromethoxy)-11-(4-((dimethylphosphoryl)methyl)-2,3-difluorophenyl)-6-(methyl-d3)-6,7-dihydro-7,14-methanobenzo[f]benzo[4,5]imidazo[1,2-a][1,4]diazocin-5(14H)-one], the IC50 was under 100 nM.

As to `CN1C(=O)c2cccc(OC(F)F)c2[C@H]2C[C@@H]1c1nc3ccc(-c4cc(F)c(CP(C)(C)=O)c(F)c4)cc3n12` [Example 77, (7R,14R)-1-(difluoromethoxy)-11-(4-((dimethylphosphoryl)methyl)-3,5-difluorophenyl)-6-methyl-6,7-dihydro-7,14-methanobenzo[f]benzo[4,5]imidazo[1,2-a][1,4]diazocin-5(14H)-one], the IC50 is under 100 nM.

As to `[2H]C([2H])([2H])N1C(=O)c2cccc(OC(F)F)c2[C@H]2C[C@@H]1c1nc3cc(F)c(-c4ccc(CP(C)(C)=O)c(F)c4)cc3n12` [Example 78, (7R,14R)-1-(difluoromethoxy)-11-(4-((dimethylphosphoryl)methyl)-3-fluorophenyl)-10-fluoro-6-(methyl-d3)-6,7-dihydro-7,14-methanobenzo[f]benzo[4,5]imidazo[1,2-a][1,4]diazocin-5(14H)-one], the IC50 is under 100 nM.

As for `CN1C(=O)c2cccc(OC(F)F)c2[C@H]2C[C@@H]1c1nc3ccc(-c4ccc(CP(C)(C)=O)c(F)c4)cc3n12` [Example 79, (7R,14R)-1-(difluoromethoxy)-11-(4-((dimethylphosphoryl)methyl)-3-fluorophenyl)-6-methyl-6,7-dihydro-7,14-methanobenzo[f]benzo[4,5]imidazo[1,2-a][1,4]diazocin-5(14H)-one], the IC50 was under 100 nM.

On to `CN1C(=O)c2cccc(OC(F)F)c2[C@H]2C[C@@H]1c1nc3ccc(-c4ccc(CP(C)(C)=O)cc4F)cc3n12` [Example 80, (7R,14R)-1-(difluoromethoxy)-11-(4-((dimethylphosphoryl)methyl)-2-fluorophenyl)-6-methyl-6,7-dihydro-7,14-methanobenzo[f]benzo[4,5]imidazo[1,2-a][1,4]diazocin-5(14H)-one], for which the concentration for half-maximal inhibition (IC50) was under 100 nM.

On to `CP(C)(=O)Cc1c(F)cc(-c2ccc3nc4n(c3c2)[C@@H]2C[C@H]4NC(=O)c3cccc(OC(F)F)c32)cc1F` [Example 81, (7R,14R)-1-(difluoromethoxy)-11-(4-((dimethylphosphoryl)methyl)-3,5-difluorophenyl)-6,7-dihydro-7,14-methanobenzo[f]benzo[4,5]imidazo[1,2-a][1,4]diazocin-5(14H)-one], for which the concentration for half-maximal inhibition (IC50) was under 100 nM.

`CP(C)(=O)Cc1cc(F)c(-c2ccc3nc4n(c3c2)[C@@H]2C[C@H]4NC(=O)c3cccc(OC(F)F)c32)cc1F` [Example 82, (7R,14R)-1-(difluoromethoxy)-11-(4-((dimethylphosphoryl)methyl)-2,5-difluorophenyl)-6,7-dihydro-7,14-methanobenzo[f]benzo[4,5]imidazo[1,2-a][1,4]diazocin-5(14H)-one]: the IC50 was 100 to 1000 nM.

Regarding `[2H]C([2H])([2H])N1C(=O)c2cccc(OC(F)F)c2[C@H]2C[C@@H]1c1nc3ccc(-c4ccc(C(O)P(C)(C)=O)cc4)cc3n12` (stereo partly drawn) [Example 84, (7R,14R)-1-(difluoromethoxy)-11-(4-((dimethylphosphoryl)(hydroxy)methyl)phenyl)-6-(methyl-d3)-6,7-dihydro-7,14-methanobenzo[f]benzo[4,5]imidazo[1,2-a][1,4]diazocin-5(14H)-one], the IC50 was under 100 nM.

On to `[2H]C([2H])([2H])N1C(=O)c2cccc(OC(F)F)c2[C@H]2C[C@@H]1c1nc3ccc(-c4cnc(P(C)(C)=O)cc4C)cc3n12` [Example 87, (7R,14R)-1-(difluoromethoxy)-11-(6-(dimethylphosphoryl)-4-methylpyridin-3-yl)-6-(methyl-d3)-6,7-dihydro-7,14-methanobenzo[f]benzo[4,5]imidazo[1,2-a][1,4]diazocin-5(14H)-one], for which the half-inhibitory concentration (IC50) lay within 100 to 1000 nM.

Turning to `[2H]C([2H])([2H])N1C(=O)c2cccc(OC(F)F)c2[C@H]2C[C@@H]1c1nc3ccc(-c4cc(F)c(P(C)(C)=O)cc4C)cc3n12` [Example 88, (7R,14R)-1-(difluoromethoxy)-11-(4-(dimethylphosphoryl)-5-fluoro-2-methylphenyl)-6-(methyl-d3)-6,7-dihydro-7,14-methanobenzo[f]benzo[4,5]imidazo[1,2-a][1,4]diazocin-5(14H)-one], the half-maximal inhibitory concentration (IC50) is under 100 nM.

In the case of `[2H]C([2H])([2H])N1C(=O)c2cccc(OC(F)F)c2[C@H]2C[C@@H]1c1nc3cc(F)c(-c4cnc(P(C)(C)=O)cc4C)cc3n12` [Example 89, (7R,14R)-1-(difluoromethoxy)-11-(6-(dimethylphosphoryl)-4-methylpyridin-3-yl)-10-fluoro-6-(methyl-d3)-6,7-dihydro-7,14-methanobenzo[f]benzo[4,5]imidazo[1,2-a][1,4]diazocin-5(14H)-one], the concentration for half-maximal inhibition (IC50) lay within 10000 to 30000 nM.

`[2H]C([2H])([2H])N1C(=O)c2cccc(OC(F)F)c2[C@H]2C[C@@H]1c1nc3ccc(-c4ccc(P(C)(C)=O)c(F)c4C)cc3n12` [Example 90, (7R,14R)-1-(difluoromethoxy)-11-(4-(dimethylphosphoryl)-3-fluoro-2-methylphenyl)-6-(methyl-d3)-6,7-dihydro-7,14-methanobenzo[f]benzo[4,5]imidazo[1,2-a][1,4]diazocin-5(14H)-one]: the half-inhibitory concentration (IC50) was under 100 nM.

Take `[2H]C([2H])([2H])N1C(=O)c2cccc(OC(F)F)c2[C@H]2C[C@@H]1c1nc3ccc(-c4ccc(P(C)(C)=O)nc4C)cc3n12` [Example 91, (7R,14R)-1-(difluoromethoxy)-11-(6-(dimethylphosphoryl)-2-methylpyridin-3-yl)-6-(methyl-d3)-6,7-dihydro-7,14-methanobenzo[f]benzo[4,5]imidazo[1,2-a][1,4]diazocin-5(14H)-one]: the half-maximal inhibitory concentration (IC50) was under 100 nM.

For the compound `[2H]C([2H])([2H])N1C(=O)c2cccc(OC(F)F)c2[C@H]2C[C@@H]1c1nc3ccc(-c4ccc(P(C)(C)=O)nc4F)cc3n12` [Example 92, (7R,14R)-1-(difluoromethoxy)-11-(6-(dimethylphosphoryl)-2-fluoropyridin-3-yl)-6-(methyl-d3)-6,7-dihydro-7,14-methanobenzo[f]benzo[4,5]imidazo[1,2-a][1,4]diazocin-5(14H)-one], the IC50 is under 100 nM.

As for `[2H]C([2H])([2H])N1C(=O)c2cccc(OC(F)F)c2[C@H]2C[C@@H]1c1nc3ccc(-c4cnc(P(C)(C)=O)cc4Cl)cc3n12` [Example 93, (7R,14R)-11-(4-chloro-6-(dimethylphosphoryl)pyridin-3-yl)-1-(difluoromethoxy)-6-(methyl-d3)-6,7-dihydro-7,14-methanobenzo[f]benzo[4,5]imidazo[1,2-a][1,4]diazocin-5(14H)-one], the IC50 was under 100 nM.

On to `[2H]C([2H])([2H])N1C(=O)c2cccc(OC(F)F)c2[C@H]2C[C@@H]1c1nc3ccc(-c4ccc(P(C)(C)=O)nc4Cl)cc3n12` [Example 94, (7R,14R)-11-(2-chloro-6-(dimethylphosphoryl)pyridin-3-yl)-1-(difluoromethoxy)-6-(methyl-d3)-6,7-dihydro-7,14-methanobenzo[f]benzo[4,5]imidazo[1,2-a][1,4]diazocin-5(14H)-one], for which the IC50 is under 100 nM.

For the compound `[2H]C([2H])([2H])N1C(=O)c2cccc(OC(F)F)c2[C@H]2C[C@@H]1c1nc3ccc(-c4ccc(C(F)(F)P(C)(C)=O)cc4)cc3n12` [Example 95, (7R,14R)-1-(difluoromethoxy)-11-(4-((dimethylphosphoryl)difluoromethyl)phenyl)-6-(methyl-d3)-6,7-dihydro-7,14-methanobenzo[f]benzo[4,5]imidazo[1,2-a][1,4]diazocin-5(14H)-one], the IC50 is under 100 nM.

As for `CP(C)(=O)Cc1ccc(-c2ccc3nc4n(c3c2)[C@@H]2C[C@H]4NC(=O)c3cccc(OC(F)F)c32)c(F)c1` [Example 96, (7R,14R)-1-(difluoromethoxy)-11-(4-((dimethylphosphoryl)methyl)-2-fluorophenyl)-6,7-dihydro-7,14-methanobenzo[f]benzo[4,5]imidazo[1,2-a][1,4]diazocin-5(14H)-one], the IC50 lay in the range of 100 to 1000 nM.

With `[2H]C([2H])([2H])N1C(=O)c2cccc(OC(F)F)c2[C@H]2C[C@@H]1c1nc3cc(F)c(-c4ccc(P(C)(C)=O)nc4C)cc3n12` [Example 97, (7R,14R)-1-(difluoromethoxy)-11-(6-(dimethylphosphoryl)-2-methylpyridin-3-yl)-10-fluoro-6-(methyl-d3)-6,7-dihydro-7,14-methanobenzo[f]benzo[4,5]imidazo[1,2-a][1,4]diazocin-5(14H)-one], the IC50 was under 100 nM.

Source of the values: US12384808B2, “Modulators of TNF-α activity” (Forward Therapeutics, Inc., priority 2022, dated 2025).
